Test results reported in the NIST ThermoML archive (doi:10.1016/j.jct.2015.07.028).

Experiment: molar heat capacity at saturation pressure
Details: Liquid, Small (less than 1 g) adiabatic calorimetry

C=CC(C)(C)O [2-methyl-3-buten-2-ol]
Details | molar heat capacity [J/K/mol]
246.77 K | 194.9
247.82 K | 195.6
247.97 K | 195.7
248.89 K | 196.3
249.15 K | 196.4
250 K | 197.1
250.07 K | 197.1
250.13 K | 197.2
250.55 K | 197.4
251.14 K | 197.8
251.38 K | 197.9
252.31 K | 198.7
252.44 K | 198.8
252.58 K | 198.8
253.39 K | 199.4
253.62 K | 199.5
254.55 K | 200.3
254.63 K | 200.3
254.88 K | 200.5
255.63 K | 201
255.85 K | 201.2
256.68 K | 201.8
256.78 K | 201.9
257.32 K | 202.4
257.86 K | 202.7
258.07 K | 202.9
258.73 K | 203.4
259 K | 203.6
259.76 K | 204.2
260 K | 204.4
260.78 K | 205
262.18 K | 206.2
262.83 K | 206.7
264.6 K | 208.1
264.88 K | 208.4
266.93 K | 210
267.01 K | 210.2
268.98 K | 211.8
269.4 K | 212.2
270 K | 212.7
271.03 K | 213.5
271.79 K | 214.3
273.08 K | 215.2
273.15 K | 215.4
274.18 K | 216.2
275.13 K | 217.1
276.55 K | 218.4
277.18 K | 218.9
278.91 K | 220.5
279.23 K | 220.7
280 K | 221.4
281.26 K | 222.6
281.28 K | 222.6
283.33 K | 224.4
283.61 K | 224.6
285.38 K | 226.2
